Data as given in PMC2788677 (Journal of medicinal chemistry, 2009).

How the values were obtained:
MOR [1] = assay: Radioligand binding assay, CHO cells stably expressing MOR, [3H]DAMGO; details: relative to dermorphin
MOR [2] = details: cited from earlier work

Dermorphin
Rel. MOR affinity (MOR [1]): 1.0 | higher affinity than morphine for MOR (MOR [2]): 100 fold
